Source: paper PMC6429214, “Design, Synthesis and Biological Evaluation of Isoxazole-Based CK1 Inhibitors Modified with Chiral Pyrrolidine Scaffolds” (Molecules, 2019)

Experiments:
Assay in all cases: 33PanQinase panel
Assay type in all cases: biochemical
[1] = biological target: T1, GSG2 (Homo sapiens, UniProt Q8TF76); conditions: GSG2, 1 µM; read-out: Residual Activity (%)
T1 construct: purchased ProQinase
Method in brief: (§1)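 The compound is tested at 1 µM against a panel of 320 wild-type protein kinases. A radiometric, activity-based 33P readout gives kinase activity, reported as residual percentage of the DMSO control; final DMSO is 1%.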

[2] = biological target: T2, ERK1 (Homo sapiens, UniProt P27361); conditions: ERK1, 1 µM; read-out: Residual Activity (%)
T2 construct: purchased ProQinase
T2 sequence (P27361 whole entry): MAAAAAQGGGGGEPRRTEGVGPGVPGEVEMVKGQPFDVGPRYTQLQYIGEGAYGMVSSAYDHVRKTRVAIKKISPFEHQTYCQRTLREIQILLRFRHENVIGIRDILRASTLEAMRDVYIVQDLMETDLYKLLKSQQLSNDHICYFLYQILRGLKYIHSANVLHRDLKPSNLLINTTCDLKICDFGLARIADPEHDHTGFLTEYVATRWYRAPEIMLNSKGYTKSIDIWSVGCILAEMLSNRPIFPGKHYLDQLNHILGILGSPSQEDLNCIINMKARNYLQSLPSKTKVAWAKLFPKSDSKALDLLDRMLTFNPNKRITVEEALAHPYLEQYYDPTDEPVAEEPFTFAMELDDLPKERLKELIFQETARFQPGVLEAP
Method in brief: as §1

[3] = biological target: T3, HIPK4 (Homo sapiens, UniProt Q8NE63); conditions: HIPK4, 1 µM; read-out: Residual Activity (%)
T3 construct: purchased ProQinase
T3 sequence (Q8NE63 whole entry): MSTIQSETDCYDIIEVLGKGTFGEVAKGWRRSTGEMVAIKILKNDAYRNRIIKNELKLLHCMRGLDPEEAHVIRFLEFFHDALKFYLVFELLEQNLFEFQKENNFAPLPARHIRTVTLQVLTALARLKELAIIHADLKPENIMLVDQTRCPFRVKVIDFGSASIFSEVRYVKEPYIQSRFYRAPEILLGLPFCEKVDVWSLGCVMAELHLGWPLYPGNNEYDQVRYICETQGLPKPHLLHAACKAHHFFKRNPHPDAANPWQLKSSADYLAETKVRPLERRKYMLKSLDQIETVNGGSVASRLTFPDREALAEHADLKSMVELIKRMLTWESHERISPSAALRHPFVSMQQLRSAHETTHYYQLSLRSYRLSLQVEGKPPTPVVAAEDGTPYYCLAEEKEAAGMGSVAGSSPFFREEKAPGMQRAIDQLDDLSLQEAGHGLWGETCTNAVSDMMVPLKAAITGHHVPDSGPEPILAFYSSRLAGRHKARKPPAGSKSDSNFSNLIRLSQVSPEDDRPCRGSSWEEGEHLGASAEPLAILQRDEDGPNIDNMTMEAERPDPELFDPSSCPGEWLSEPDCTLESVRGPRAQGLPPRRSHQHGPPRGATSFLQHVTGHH
Method in brief: as §1

[4] = biological target: T4, EGF-R (Homo sapiens, UniProt P00533); conditions: read-out: Residual Activity (%)
T4 construct: purchased ProQinase
Method in brief: as §1

[5] = biological target: T5, SGK1 (Homo sapiens, UniProt O00141); conditions: SGK1, 1 µM; read-out: Residual Activity (%)
T5 construct: purchased ProQinase
T5 sequence (O00141 whole entry): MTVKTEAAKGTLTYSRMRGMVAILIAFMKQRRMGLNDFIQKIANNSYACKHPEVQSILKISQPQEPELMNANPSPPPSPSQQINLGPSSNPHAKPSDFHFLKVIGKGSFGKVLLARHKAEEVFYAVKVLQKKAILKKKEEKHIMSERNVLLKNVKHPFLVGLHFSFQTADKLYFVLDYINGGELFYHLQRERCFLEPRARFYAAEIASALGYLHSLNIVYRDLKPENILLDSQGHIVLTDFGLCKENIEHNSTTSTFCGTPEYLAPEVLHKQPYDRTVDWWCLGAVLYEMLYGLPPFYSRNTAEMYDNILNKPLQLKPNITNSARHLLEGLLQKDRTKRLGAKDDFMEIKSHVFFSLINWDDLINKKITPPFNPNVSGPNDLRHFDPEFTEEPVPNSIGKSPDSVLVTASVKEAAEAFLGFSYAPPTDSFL
Method in brief: as §1

[6] = biological target: T6, PKMYT1 (Homo sapiens, UniProt Q99640); conditions: PKMYT1, 1 µM; read-out: Residual Activity (%)
T6 construct: purchased ProQinase
T6 sequence (Q99640 whole entry): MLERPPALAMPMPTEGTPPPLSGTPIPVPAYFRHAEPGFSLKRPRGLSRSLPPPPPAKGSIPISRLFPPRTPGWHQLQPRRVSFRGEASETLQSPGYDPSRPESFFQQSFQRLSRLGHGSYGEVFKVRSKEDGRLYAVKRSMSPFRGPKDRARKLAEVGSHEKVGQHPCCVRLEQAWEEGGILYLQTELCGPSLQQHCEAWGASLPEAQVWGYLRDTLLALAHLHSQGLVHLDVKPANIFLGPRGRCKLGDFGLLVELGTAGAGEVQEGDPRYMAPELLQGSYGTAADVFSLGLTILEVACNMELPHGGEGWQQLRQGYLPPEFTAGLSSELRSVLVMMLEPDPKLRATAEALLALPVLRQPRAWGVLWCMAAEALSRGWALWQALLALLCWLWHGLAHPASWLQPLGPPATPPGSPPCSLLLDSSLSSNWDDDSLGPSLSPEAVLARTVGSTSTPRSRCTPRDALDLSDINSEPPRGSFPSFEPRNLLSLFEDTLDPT
Method in brief: as §1

[7] = biological target: T7, MUSK (Homo sapiens, UniProt O15146); conditions: read-out: Residual Activity (%)
T7 construct: purchased ProQinase
T7 sequence (O15146 24-869): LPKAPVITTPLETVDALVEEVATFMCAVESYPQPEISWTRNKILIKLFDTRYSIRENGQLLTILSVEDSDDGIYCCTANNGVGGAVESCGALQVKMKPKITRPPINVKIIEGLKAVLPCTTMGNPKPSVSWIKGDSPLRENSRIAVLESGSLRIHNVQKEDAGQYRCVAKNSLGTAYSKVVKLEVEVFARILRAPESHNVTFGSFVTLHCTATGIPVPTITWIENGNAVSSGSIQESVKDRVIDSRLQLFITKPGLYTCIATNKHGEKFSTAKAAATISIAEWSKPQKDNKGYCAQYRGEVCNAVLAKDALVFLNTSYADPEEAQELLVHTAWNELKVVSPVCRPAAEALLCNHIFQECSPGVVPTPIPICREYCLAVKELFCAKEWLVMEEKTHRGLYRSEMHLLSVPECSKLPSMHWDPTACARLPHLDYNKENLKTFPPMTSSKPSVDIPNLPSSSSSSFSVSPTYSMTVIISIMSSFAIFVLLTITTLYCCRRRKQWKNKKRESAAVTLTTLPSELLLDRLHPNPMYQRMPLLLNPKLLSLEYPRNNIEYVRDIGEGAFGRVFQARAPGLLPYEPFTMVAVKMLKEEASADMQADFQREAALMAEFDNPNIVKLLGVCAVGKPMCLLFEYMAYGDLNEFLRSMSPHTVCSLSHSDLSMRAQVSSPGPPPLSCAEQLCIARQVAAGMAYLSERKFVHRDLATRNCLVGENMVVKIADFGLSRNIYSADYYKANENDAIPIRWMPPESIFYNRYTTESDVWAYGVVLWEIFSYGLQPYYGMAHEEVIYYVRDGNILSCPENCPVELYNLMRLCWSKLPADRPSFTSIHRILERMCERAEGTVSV
Method in brief: as §1

[8] = biological target: T8, PKC-iota (Homo sapiens, UniProt P41743); conditions: read-out: Residual Activity (%)
T8 construct: purchased ProQinase
T8 sequence (P41743 whole entry): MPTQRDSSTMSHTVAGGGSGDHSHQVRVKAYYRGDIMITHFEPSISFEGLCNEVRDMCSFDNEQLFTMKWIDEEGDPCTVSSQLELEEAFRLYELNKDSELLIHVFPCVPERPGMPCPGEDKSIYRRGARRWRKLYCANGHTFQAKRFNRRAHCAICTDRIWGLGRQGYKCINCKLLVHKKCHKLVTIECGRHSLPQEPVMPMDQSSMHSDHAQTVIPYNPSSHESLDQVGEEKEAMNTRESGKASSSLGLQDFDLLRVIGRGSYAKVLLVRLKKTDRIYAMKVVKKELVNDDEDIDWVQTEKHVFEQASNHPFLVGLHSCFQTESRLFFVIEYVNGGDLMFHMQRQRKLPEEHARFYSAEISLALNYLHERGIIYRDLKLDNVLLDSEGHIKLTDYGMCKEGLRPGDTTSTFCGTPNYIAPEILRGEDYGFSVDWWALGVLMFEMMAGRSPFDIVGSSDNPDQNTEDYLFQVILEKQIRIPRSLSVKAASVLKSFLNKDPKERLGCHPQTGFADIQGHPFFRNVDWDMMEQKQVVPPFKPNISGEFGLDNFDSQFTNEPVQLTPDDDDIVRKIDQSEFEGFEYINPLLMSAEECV
Method in brief: as §1

T1 sequence (Q8TF76 whole entry): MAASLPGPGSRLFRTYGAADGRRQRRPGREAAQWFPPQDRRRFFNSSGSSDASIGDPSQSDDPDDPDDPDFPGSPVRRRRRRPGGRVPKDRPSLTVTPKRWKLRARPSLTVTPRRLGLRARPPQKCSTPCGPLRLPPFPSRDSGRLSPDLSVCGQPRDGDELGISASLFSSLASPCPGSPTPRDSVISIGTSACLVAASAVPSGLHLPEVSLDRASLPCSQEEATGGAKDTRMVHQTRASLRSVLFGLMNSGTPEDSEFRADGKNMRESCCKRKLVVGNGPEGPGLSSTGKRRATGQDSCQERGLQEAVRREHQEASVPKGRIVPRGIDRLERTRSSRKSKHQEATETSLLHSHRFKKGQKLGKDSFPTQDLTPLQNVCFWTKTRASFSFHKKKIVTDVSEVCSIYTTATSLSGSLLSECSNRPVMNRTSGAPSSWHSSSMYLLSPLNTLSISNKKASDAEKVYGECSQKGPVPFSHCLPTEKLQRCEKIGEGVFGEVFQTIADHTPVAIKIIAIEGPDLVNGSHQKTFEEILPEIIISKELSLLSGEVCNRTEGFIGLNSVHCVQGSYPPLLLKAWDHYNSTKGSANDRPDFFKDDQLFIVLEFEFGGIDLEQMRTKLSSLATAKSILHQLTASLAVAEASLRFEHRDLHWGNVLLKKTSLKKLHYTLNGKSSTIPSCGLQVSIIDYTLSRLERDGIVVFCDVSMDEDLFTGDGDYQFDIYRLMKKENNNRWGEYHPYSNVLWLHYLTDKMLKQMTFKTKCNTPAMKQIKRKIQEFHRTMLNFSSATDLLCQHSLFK

With `COc1ccc(-c2cc(C(=O)Nc3cc(-c4c(-c5ccc(F)cc5)noc4C(C)C)ccn3)n(CC3NCC(O)C3O)c2)cc1` (centres unmarked) [29d] the remaining activity at 1 µM [1] was 91%, the remaining activity at 1 µM [2] was 102% and the remaining activity at 1 µM [3] was 91%. The remaining activity at 1 µM [4] was 108%, the remaining activity at 1 µM [5] was 102% and the remaining activity at 1 µM [6] was 107%. The remaining activity at 1 µM [7] was 97% and the remaining activity at 1 µM [8] was 88%.
